Measured values: paper PMC11956013, “Structure–Activity Relationships and Evaluation of 2-(Heteroaryl-cycloalkyl)-1H-indoles as Tauopathy Positron Emission Tomography Radiotracers” (Journal of Medicinal Chemistry, 2025)

Columns and labels:
98 CNS protein targets = test: Eurofins CNS SafetyScreen panel at 10 μM; assay type: binding; details: 10-μM concentration
human 5-HT2B = target: T1, human 5-HT2B (Homo sapiens, UniProt P41595); test: Eurofins CNS SafetyScreen panel: 5-HT2B (vs ± DOI); assay type: binding
T1 construct: purchased Eurofins (contract screening, CNS SafetyScreen panel)
T1 sequence (P41595 whole entry): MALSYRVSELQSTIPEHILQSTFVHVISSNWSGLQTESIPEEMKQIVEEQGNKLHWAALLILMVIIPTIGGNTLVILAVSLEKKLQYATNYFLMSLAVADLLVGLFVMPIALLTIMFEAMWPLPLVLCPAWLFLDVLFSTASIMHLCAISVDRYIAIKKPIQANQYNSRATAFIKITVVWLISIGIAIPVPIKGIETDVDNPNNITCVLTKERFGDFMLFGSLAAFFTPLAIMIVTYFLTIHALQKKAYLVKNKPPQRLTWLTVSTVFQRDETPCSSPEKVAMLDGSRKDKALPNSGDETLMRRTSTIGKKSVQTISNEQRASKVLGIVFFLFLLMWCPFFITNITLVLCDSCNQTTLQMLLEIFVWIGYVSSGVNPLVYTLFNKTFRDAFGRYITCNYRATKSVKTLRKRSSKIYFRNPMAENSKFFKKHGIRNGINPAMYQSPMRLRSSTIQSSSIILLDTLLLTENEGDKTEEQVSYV

human recombinant MAO-B = target: T2, human recombinant MAO-B (Homo sapiens, UniProt P27338); test: Eurofins IC50 determination at human recombinant MAO-B; assay type: binding
T2 construct: purchased Eurofins (contract assay)

Na+ channel (site 2) = test: Eurofins panel: Na+ channel (site 2) (antagonist radioligand); assay type: binding; details: compound concentration 1.0E-05 M
NMDA = test: Eurofins panel: NMDA (antagonist radioligand); assay type: binding; details: compound concentration 1.0E-05 M
tyrosine hydroxylase = target: T3, tyrosine hydroxylase (Rattus norvegicus, UniProt P04177); test: Eurofins panel: tyrosine hydroxylase; assay type: biochemical; details: compound concentration 1.0E-05 M
T3 construct: purchased Eurofins (CNS SafetyScreen panel, contract assay)

[1] = target: GABAA (alpha1/beta2/gamma2) Human Ion Channel, Picrotoxinin site (Homo sapiens, UniProt P14867+P18507+P47870); test: biochemical; assay type: binding
ATPase (Na+/K+) = test: Eurofins panel: ATPase (Na+/K+) enzymatic activity; assay type: biochemical; details: 1.0E-05 M
[2] = target: T4, Glutamate (Non-Selective) Rat Ion Channel Glycine (Strychnine-Insensitive) (Rattus norvegicus, UniProt P35439); test: Glutamate (Non-Selective) Rat Ion Channel Glycine (Strychnine-Insensitive), Mass Spectrometry Binding, assay 5043
T4 construct: Eurofins assay 5043

kappa (h) (KOP) = kappa (h) (KOP) (Homo sapiens, UniProt P41145); test: biochemical; assay type: binding
M1 (h) = target: T5, M1 (h) (Homo sapiens, UniProt P11229); test: biochemical; assay type: binding
T5 construct: purchased Eurofins (CNS SafetyScreen panel, contract assay) assay 91
T5 sequence (P11229 whole entry): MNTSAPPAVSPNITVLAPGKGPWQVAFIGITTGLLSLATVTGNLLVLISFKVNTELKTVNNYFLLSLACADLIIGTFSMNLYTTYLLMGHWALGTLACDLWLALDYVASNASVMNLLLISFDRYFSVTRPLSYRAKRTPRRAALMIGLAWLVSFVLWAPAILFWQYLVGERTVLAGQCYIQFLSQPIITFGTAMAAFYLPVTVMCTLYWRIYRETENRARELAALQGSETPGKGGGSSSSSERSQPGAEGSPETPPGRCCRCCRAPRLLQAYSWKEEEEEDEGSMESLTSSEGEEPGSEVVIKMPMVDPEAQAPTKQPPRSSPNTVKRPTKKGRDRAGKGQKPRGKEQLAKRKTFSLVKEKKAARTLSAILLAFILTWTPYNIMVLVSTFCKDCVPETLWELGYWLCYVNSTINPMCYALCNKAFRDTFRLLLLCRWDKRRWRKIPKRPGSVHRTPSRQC

cathepsin B (h) = target: T6, cathepsin B (h) (Homo sapiens, UniProt P07858); test: Eurofins panel: cathepsin B (h) enzymatic activity; assay type: biochemical; details: 1.0E-05 M; cathepsin B (h)
T6 construct: Eurofins (panel run by the vendor)

cathepsin L (h) = target: T7, cathepsin L (h) (Homo sapiens, UniProt P07711); test: Eurofins panel: cathepsin L (h) enzymatic activity; assay type: biochemical; details: 1.0E-05 M; cathepsin L (h)
T7 construct: Eurofins (panel run by the vendor)
T7 sequence (P07711 114-333): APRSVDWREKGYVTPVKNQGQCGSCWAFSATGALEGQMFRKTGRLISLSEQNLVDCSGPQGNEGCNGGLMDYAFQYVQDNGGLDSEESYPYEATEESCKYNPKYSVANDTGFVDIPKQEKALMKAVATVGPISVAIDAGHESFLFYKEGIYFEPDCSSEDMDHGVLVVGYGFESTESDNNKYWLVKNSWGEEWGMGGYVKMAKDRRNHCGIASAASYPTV

5-HT1A (h) = 5-HT1A (h) (Homo sapiens, UniProt P08908); details: 1.0E-05 M; 5-HT1A (h) (agonist radioligand)
5-HT7 (h) = 5-HT7 (h) (Homo sapiens, UniProt P34969); details: 1.0E-05 M; 5-HT7 (h) (agonist radioligand)
[3] = target: norepinephrine transporter (h) (Homo sapiens, UniProt P23975); details: compound concentration 1.0E-05 M
A2A (h) = A2A (h) (Homo sapiens, UniProt P29274); details: 1.0E-05 M; A2A (h) (agonist radioligand)
Chain of A2A (h) (P29274 whole entry): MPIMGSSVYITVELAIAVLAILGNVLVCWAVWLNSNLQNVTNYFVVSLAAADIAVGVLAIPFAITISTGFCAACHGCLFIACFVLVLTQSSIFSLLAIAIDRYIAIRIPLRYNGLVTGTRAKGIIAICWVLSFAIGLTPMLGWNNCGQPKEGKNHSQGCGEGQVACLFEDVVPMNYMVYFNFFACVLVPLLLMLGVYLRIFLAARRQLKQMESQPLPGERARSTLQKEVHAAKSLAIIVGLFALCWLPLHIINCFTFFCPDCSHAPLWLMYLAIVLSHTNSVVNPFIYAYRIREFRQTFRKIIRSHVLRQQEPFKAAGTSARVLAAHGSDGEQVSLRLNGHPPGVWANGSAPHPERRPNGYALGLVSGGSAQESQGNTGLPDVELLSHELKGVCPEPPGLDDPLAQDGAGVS

Oxytocin (h) = Oxytocin (h) (Homo sapiens, UniProt P30559); details: compound concentration 1.0E-05 M
A3 (h) = A3 (h) (Homo sapiens, UniProt P0DMS8); details: 1.0E-05 M; A3 (h) (agonist radioligand)
Chain of A3 (h) (P0DMS8 whole entry): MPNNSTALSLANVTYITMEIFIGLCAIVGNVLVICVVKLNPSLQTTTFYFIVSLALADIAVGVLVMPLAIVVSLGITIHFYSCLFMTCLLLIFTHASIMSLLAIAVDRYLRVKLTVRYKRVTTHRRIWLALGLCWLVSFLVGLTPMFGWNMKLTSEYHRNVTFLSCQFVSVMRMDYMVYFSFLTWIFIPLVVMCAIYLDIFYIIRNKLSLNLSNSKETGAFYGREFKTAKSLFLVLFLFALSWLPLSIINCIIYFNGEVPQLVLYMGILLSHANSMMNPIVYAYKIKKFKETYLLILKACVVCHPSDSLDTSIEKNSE

TNF-alpha (h) = details: compound concentration 1.0E-05 M
alpha2A (h) = alpha2A (h) (Homo sapiens, UniProt P08913); details: 1.0E-05 M; alpha2A (h) (antagonist radioligand)
Chain of alpha2A (h) (P08913 whole entry): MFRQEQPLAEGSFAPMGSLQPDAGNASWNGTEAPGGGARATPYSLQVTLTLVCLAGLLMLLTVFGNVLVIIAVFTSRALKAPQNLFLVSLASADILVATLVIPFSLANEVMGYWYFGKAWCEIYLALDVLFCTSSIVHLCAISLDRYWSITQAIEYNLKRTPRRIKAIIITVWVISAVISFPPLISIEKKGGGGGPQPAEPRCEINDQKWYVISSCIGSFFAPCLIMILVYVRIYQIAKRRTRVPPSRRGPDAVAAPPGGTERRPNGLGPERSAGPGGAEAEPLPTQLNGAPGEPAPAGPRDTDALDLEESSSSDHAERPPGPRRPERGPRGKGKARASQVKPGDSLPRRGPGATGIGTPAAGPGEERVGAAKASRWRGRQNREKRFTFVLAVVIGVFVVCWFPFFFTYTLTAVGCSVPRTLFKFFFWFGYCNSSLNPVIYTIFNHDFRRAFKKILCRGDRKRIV

Y1 (h) = Y1 (h) (Homo sapiens, UniProt P25929); details: compound concentration 1.0E-05 M
B2 (h) = B2 (h) (Homo sapiens, UniProt P30411); details: 1.0E-05 M; B2 (h) (agonist radioligand)
Chain of B2 (h) (P30411 whole entry): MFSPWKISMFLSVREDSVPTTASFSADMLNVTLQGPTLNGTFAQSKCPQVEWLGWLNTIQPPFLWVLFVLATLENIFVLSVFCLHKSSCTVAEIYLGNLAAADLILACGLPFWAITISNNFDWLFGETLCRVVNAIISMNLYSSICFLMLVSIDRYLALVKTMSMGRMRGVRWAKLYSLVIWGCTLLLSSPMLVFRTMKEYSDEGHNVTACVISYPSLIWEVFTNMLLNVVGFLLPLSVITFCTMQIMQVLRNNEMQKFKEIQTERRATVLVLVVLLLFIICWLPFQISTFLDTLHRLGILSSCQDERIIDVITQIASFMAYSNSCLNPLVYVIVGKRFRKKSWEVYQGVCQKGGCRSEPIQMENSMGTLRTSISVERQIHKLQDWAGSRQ

beta1 (h) = beta1 (h) (Homo sapiens, UniProt P08588); details: 1.0E-05 M; beta1 (h) (agonist radioligand)
CB1 (h) = CB1 (h) (Homo sapiens, UniProt P21554); test: biochemical
CCK2 (CCKB) (h) = CCK2 (CCKB) (h) (Homo sapiens, UniProt P32239); test: biochemical
CGRP (h) = CGRP (h) (Homo sapiens, UniProt O60894+Q16602); test: biochemical
Chain of CGRP (h) (Q16602 23-461): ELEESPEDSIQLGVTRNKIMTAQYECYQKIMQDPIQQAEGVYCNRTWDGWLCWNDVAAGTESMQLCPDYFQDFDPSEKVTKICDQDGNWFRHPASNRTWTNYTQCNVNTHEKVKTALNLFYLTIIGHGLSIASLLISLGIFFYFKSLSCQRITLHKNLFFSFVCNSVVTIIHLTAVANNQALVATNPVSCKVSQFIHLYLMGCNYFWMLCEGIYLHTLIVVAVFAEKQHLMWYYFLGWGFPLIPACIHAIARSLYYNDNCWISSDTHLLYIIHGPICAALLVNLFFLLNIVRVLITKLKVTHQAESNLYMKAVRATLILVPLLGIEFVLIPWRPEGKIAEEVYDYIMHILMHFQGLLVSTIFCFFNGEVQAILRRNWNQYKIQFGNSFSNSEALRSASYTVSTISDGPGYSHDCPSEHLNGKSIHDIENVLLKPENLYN
Chain of CGRP (h) (O60894 27-148): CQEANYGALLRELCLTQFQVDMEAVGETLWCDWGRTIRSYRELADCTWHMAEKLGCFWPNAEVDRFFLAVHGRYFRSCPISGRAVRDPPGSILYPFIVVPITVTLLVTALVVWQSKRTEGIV

D1 (h) = D1 (h) (Homo sapiens, UniProt P21728); test: biochemical
H1 (h) = H1 (h) (Homo sapiens, UniProt P35367); test: biochemical
H3 (h) = H3 (h) (Homo sapiens, UniProt Q9Y5N1); test: biochemical
Chain of H3 (h) (Q9Y5N1 whole entry): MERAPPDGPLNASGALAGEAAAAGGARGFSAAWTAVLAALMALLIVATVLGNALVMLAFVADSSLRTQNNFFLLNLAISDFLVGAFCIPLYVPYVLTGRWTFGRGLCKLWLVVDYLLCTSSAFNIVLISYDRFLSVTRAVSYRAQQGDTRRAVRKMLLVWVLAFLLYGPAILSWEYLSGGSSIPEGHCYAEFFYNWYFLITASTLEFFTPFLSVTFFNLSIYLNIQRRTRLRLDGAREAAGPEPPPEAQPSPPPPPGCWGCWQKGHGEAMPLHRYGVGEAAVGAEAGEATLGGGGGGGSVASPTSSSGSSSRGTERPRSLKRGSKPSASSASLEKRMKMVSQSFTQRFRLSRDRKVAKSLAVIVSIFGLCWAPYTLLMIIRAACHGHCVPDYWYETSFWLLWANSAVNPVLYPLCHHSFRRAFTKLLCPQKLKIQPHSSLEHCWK

mGluR5 (h) = mGluR5 (h) (Homo sapiens, UniProt P41594); test: Eurofins panel: mGluR5 (h) (agonist radioligand); details: 1.0E-05 M; mGluR5 (h) (agonist radioligand)
beta2 (h) = beta2 (h) (Homo sapiens, UniProt P07550); test: Eurofins panel: beta2 (h) (antagonist radioligand); details: 1.0E-05 M
5-HT4e (h) = 5-HT4e (h) (Homo sapiens, UniProt Q13639); test: Eurofins panel: 5-HT4e (h) (antagonist radioligand); details: 1.0E-05 M; 5-HT4e (h) (antagonist radioligand)
5-HT transporter (h) = 5-HT transporter (h) (Homo sapiens, UniProt P31645); test: Eurofins panel: 5-HT transporter (h) (antagonist radioligand); details: 1.0E-05 M
Chain of 5-HT transporter (h) (P31645 whole entry): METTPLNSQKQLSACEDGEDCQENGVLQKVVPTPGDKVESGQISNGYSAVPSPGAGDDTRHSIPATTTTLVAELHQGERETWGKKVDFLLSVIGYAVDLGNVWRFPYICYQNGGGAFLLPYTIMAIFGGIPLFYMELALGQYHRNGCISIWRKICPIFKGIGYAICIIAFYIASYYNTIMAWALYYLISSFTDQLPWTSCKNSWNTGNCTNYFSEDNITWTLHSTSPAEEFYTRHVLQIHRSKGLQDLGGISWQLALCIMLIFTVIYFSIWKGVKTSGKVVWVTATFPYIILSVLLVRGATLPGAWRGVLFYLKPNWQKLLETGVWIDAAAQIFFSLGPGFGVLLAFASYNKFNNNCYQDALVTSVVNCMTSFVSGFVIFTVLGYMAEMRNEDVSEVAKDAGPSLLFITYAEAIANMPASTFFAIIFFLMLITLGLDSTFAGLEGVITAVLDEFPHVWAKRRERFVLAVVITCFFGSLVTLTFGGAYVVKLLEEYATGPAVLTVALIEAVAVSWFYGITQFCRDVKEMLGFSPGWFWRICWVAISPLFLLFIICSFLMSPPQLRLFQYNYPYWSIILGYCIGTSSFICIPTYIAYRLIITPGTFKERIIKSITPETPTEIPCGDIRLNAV

N neuronal alpha7 (h) = N neuronal alpha7 (h) (Homo sapiens, UniProt P36544); test: Eurofins panel: N neuronal alpha7 (h) (antagonist radioligand); details: compound concentration 1.0E-05 M
Chain of N neuronal alpha7 (h) (P36544 23-502): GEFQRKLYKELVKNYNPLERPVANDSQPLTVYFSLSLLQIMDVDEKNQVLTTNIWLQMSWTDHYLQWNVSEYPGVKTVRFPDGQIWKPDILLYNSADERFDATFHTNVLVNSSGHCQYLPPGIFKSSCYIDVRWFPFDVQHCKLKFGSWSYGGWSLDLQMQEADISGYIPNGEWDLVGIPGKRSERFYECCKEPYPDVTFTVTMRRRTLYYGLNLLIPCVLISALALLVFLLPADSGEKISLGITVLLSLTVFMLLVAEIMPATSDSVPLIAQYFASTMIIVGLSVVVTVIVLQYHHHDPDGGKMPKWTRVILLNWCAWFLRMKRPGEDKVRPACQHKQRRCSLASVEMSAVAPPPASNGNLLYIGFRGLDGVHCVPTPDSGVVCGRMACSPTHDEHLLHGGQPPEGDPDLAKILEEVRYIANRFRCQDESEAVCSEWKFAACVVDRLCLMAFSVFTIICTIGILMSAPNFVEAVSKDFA

`Fc1nc(N2CCOCC2)ccc1-c1cc2ccccc2[nH]1` [Compound 75, 4-(6-Fluoro-5-(1H-indol-2-yl)pyridin-2-yl)morpholine] was tested, and the “inhibition at 96 of 98 CNS targets” value (98 CNS protein targets) was no more than 25.3%, the “% Inhibition, Specific binding” value (human 5-HT2B; 1.0E-05 M, 5-HT2B (h) (agonist radioligand)) was 44.5993% and the “inhibition at human 5-HT2B (vs ± DOI)” value (human 5-HT2B; 10-μM concentration) was 44.6%. For the same compound, the IC50 (human recombinant MAO-B) was 3 µM, the “% Inhibition, Specific binding” value (Na+ channel (site 2)) was -1.89E+01% and the “% Inhibition, Specific binding” value (NMDA) was -1.90E-01%. For the same compound, the “% Inhibition, Enzymatic activity” value (tyrosine hydroxylase) was -8.91E+00%, the inhibition at 10 µM [1] was 8.53% and the “% Inhibition, Enzymatic activity” value (ATPase (Na+/K+)) was -2.26E+00%. For the same compound, the inhibition at 10 µM [2] was 3.36%, the inhibition at 10 µM (kappa (h) (KOP)) was 7.11% and the inhibition at 10 µM (M1 (h)) was -8.86%. The “% Inhibition, Enzymatic activity” value (cathepsin B (h)) was -8.47E+00%, the “% Inhibition, Enzymatic activity” value (cathepsin L (h)) was 15.4729% and the “% Inhibition, Specific binding” value (5-HT1A (h)) was 11.4159%. The “% Inhibition, Specific binding” value (5-HT7 (h)) was -1.16E+00%, the “% Inhibition, Specific binding” value [3] was -1.11E+01% and the “% Inhibition, Specific binding” value (A2A (h)) was 6.474%. For the same compound, the “% Inhibition, Specific binding” value (Oxytocin (h)) was 25.3038%, the “% Inhibition, Specific binding” value (A3 (h)) was 5.821% and the “% Inhibition, Specific binding” value (TNF-alpha (h)) was 0.1083%. For the same compound, the “% Inhibition, Specific binding” value (alpha2A (h)) was -8.25E+00%, the “% Inhibition, Specific binding” value (Y1 (h)) was -2.40E+01% and the “% Inhibition, Specific binding” value (B2 (h)) was -1.15E+01%. For the same compound, the “% Inhibition, Specific binding” value (beta1 (h)) was 12.2039%, the inhibition at 10 µM (CB1 (h)) was -0.0362% and the inhibition at 10 µM (CCK2 (CCKB) (h)) was 2.96%. For the same compound, the inhibition at 10 µM (CGRP (h)) was -5.83%, the inhibition at 10 µM (D1 (h)) was -11.8% and the inhibition at 10 µM (H1 (h)) was -3.1%. For the same compound, the inhibition at 10 µM (H3 (h)) was -4.9%, the “% Inhibition, Specific binding” value (mGluR5 (h)) was -1.20E+01% and the “% Inhibition, Specific binding” value (beta2 (h)) was 4.9424%. For the same compound, the “% Inhibition, Specific binding” value (5-HT4e (h)) was 10.412%, the “% Inhibition, Specific binding” value (5-HT transporter (h)) was -9.53E+00% and the “% Inhibition, Specific binding” value (N neuronal alpha7 (h)) was -7.00E+00%.
